Test results reported in ChEMBL document CHEMBL3044664, “Synthesis of coumarin-based 1,3,4-oxadiazol-2ylthio-N-phenyl/benzothiazolyl acetamides as antimicrobial and antituberculosis agents” (2013).
≈ marks a conversion by molar mass, not a printed value.

What was measured:
Format in all cases: functional
[1] = tested on: Aspergillus fumigatus; assay: Antifungal activity against Aspergillus fumigatus MTCC 343 assessed as growth inhibition by agar streak dilution method
[2] = tested on: Shigella flexneri; assay: Antibacterial activity against Shigella flexneri MTCC 1457 assessed as growth inhibition by agar streak dilution method
[3] = tested on: Salmonella typhi; assay: Antibacterial activity against Salmonella enterica subsp. enterica serovar Typhi MTCC 733 assessed as growth inhibition by agar streak dilution method
[4] = tested on: Candida albicans; assay: Antifungal activity against Candida albicans MTCC 183 assessed as growth inhibition by agar streak dilution method
[5] = tested on: Aspergillus niger; assay: Antifungal activity against Aspergillus niger MTCC 282 assessed as growth inhibition by agar streak dilution method
[6] = tested on: Staphylococcus aureus; assay: Antibacterial activity against Staphylococcus aureus MTCC 96 assessed as growth inhibition by agar streak dilution method
[7] = tested on: Mycobacterium tuberculosis; assay: Antitubercular activity against Mycobacterium tuberculosis H37Rv assessed as growth inhibition by Lowenstein-Jensen method
[8] = tested on: Pseudomonas aeruginosa; assay: Antibacterial activity against Pseudomonas aeruginosa MTCC 741 assessed as growth inhibition by agar streak dilution method
[9] = tested on: Klebsiella pneumoniae; assay: Antibacterial activity against Klebsiella pneumoniae MTCC 109 assessed as growth inhibition by agar streak dilution method
[10] = tested on: Escherichia coli; assay: Antibacterial activity against Escherichia coli MTCC 739 assessed as growth inhibition by agar streak dilution method
[11] = tested on: Aspergillus clavatus; assay: Antifungal activity against Aspergillus clavatus MTCC 1323 assessed as growth inhibition by agar streak dilution method
[12] = tested on: Mycobacterium tuberculosis; assay: Antitubercular activity against Mycobacterium tuberculosis H37Rv assessed as growth inhibition at MIC by Lowenstein-Jensen method
[13] = tested on: Bacillus cereus; assay: Antibacterial activity against Bacillus cereus MTCC 430 assessed as growth inhibition by agar streak dilution method
[14] = tested on: Mycobacterium tuberculosis; assay: Antitubercular activity against Mycobacterium tuberculosis H37Rv assessed as growth inhibition by BACTEC MGIT method
[15] = tested on: Proteus vulgaris; assay: Antibacterial activity against Proteus vulgaris MTCC 1771 assessed as growth inhibition by agar streak dilution method
[16] = tested on: Mycobacterium tuberculosis; assay: Antitubercular activity against Mycobacterium tuberculosis H37Rv assessed as growth inhibition at MIC by BACTEC MGIT method

| SMILES | MIC [1] [µg/mL] | MIC [2] [µg/mL] | MIC [3] [µg/mL] | MIC [4] [µg/mL] | MIC [5] [µg/mL] | MIC [6] [µg/mL] | MIC [7] [µg/mL] | MIC [8] [µg/mL] | MIC [9] [µg/mL] | MIC [10] [µg/mL] | MIC [11] [µg/mL] | growth inhibition (GI) [12] [%] | MIC [13] [µg/mL] | MIC [14] [µg/mL] | MIC [15] [µg/mL] | growth inhibition (GI) [16] [%] |
| --- | --- | --- | --- | --- | --- | --- | --- | --- | --- | --- | --- | --- | --- | --- | --- | --- |
| O=C(CSc1nnc(-c2cc3ccccc3oc2=O)o1)Nc1ccc([N+](=O)[O-])cc1 | 50 (≈ 118 µM) | 100 (≈ 236 µM) | 100 (≈ 236 µM) | 12.5 (≈ 29.5 µM) | 100 (≈ 236 µM) | 100 (≈ 236 µM) | 500 (≈ 1180 µM) | > 100 | 100 (≈ 236 µM) | 50 (≈ 118 µM) | 100 (≈ 236 µM) | 94 | 100 (≈ 236 µM) | > 6.25 | 25 (≈ 58.9 µM) | – |
| N#Cc1ccc(NC(=O)CSc2nnc(-c3cc4ccccc4oc3=O)o2)cc1 | > 100 | > 100 | 100 (≈ 247 µM) | 50 (≈ 124 µM) | > 100 | 6.25 (≈ 15.5 µM) | 200 (≈ 495 µM) | 100 (≈ 247 µM) | 50 (≈ 124 µM) | 50 (≈ 124 µM) | > 100 | 95 | 100 (≈ 247 µM) | > 6.25 | 100 (≈ 247 µM) | – |
| O=C(CSc1nnc(-c2cc3ccccc3oc2=O)o1)Nc1ccccc1 | > 100 | > 100 | > 100 | 100 (≈ 264 µM) | > 100 | > 100 | 500 (≈ 1320 µM) | > 100 | > 100 | 100 (≈ 264 µM) | > 100 | 95 | 100 (≈ 264 µM) | > 6.25 | > 100 | – |
| O=C(CSc1nnc(-c2cc3ccccc3oc2=O)o1)Nc1ccc(Cl)cc1 | 25 (≈ 60.4 µM) | 50 (≈ 121 µM) | 100 (≈ 242 µM) | 50 (≈ 121 µM) | 25 (≈ 60.4 µM) | 50 (≈ 121 µM) | 100 (≈ 242 µM) | 100 (≈ 242 µM) | 100 (≈ 242 µM) | 25 (≈ 60.4 µM) | 100 (≈ 242 µM) | 96 | 25 (≈ 60.4 µM) | > 6.25 | 100 (≈ 242 µM) | – |
| O=C(CSc1nnc(-c2cc3ccccc3oc2=O)o1)Nc1ccc(Br)cc1 | 100 (≈ 218 µM) | 100 (≈ 218 µM) | 100 (≈ 218 µM) | 50 (≈ 109 µM) | 50 (≈ 109 µM) | 50 (≈ 109 µM) | 62.5 (≈ 136 µM) | 50 (≈ 109 µM) | 100 (≈ 218 µM) | 12.5 (≈ 27.3 µM) | 100 (≈ 218 µM) | 97 | 12.5 (≈ 27.3 µM) | > 6.25 | 100 (≈ 218 µM) | – |
| O=C(CSc1nnc(-c2cc3ccccc3oc2=O)o1)Nc1ccc(F)cc1 | 50 (≈ 126 µM) | 50 (≈ 126 µM) | 50 (≈ 126 µM) | 25 (≈ 62.9 µM) | 50 (≈ 126 µM) | 12.5 (≈ 31.5 µM) | 25 (≈ 62.9 µM) | 100 (≈ 252 µM) | 100 (≈ 252 µM) | 50 (≈ 126 µM) | 100 (≈ 252 µM) | 99 | 50 (≈ 126 µM) | > 6.25 | 100 (≈ 252 µM) | – |
| O=C(CSc1nnc(-c2cc3ccccc3oc2=O)o1)Nc1ccc(I)cc1 | 100 (≈ 198 µM) | 100 (≈ 198 µM) | > 100 | 100 (≈ 198 µM) | 100 (≈ 198 µM) | 100 (≈ 198 µM) | 12.5 (≈ 24.7 µM) | 100 (≈ 198 µM) | 100 (≈ 198 µM) | 100 (≈ 198 µM) | 100 (≈ 198 µM) | 99 | 100 (≈ 198 µM) | > 6.25 | 50 (≈ 99 µM) | – |
| CC[C@@H](CO)NCCN[C@@H](CC)CO [ETHAMBUTOL] | – | – | – | – | – | – | – | – | – | – | – | – | – | 3.12 (≈ 15.3 µM) | – | 99 |
| NNC(=O)c1ccncc1 [ISONIAZID] | – | – | – | – | – | – | – | – | – | – | – | – | – | 0.2 (≈ 1.46 µM) | – | 99 |
| NC(=O)c1cnccn1 [PYRAZINAMIDE] | – | – | – | – | – | – | – | – | – | – | – | – | – | 6.25 (≈ 50.8 µM) | – | 99 |
| CO[C@H]1/C=C/O[C@@]2(C)Oc3c(C)c(O)c4c(O)c(c(/C=N/N5CCN(C)CC5)c(O)c4c3C2=O)NC(=O)/C(C)=C\C=C\[C@H](C)[C@H](O)[C@@H](C)[C@@H](O)[C@@H](C)[C@H](OC(C)=O)[C@@H]1C [RIFAMPIN] | – | – | – | – | – | – | – | – | – | – | – | – | – | 0.25 (≈ 0.304 µM) | – | 99 |
